Assay results as given in patent US9809623B2, “α4β7 peptide monomer and dimer antagonists” (Protagonist Therapeutics, Inc., priority 2014, dated 2017).
Numbered stars: 1 amine (or outer) side, 2 acyl side, 3 side chain; on linkers, the order of the positions; unused ones are H or OH. Bridge positions count the residues as written; N and C are the ends. Square brackets hold non-standard residues; d marks the D form. Peptide text beside a SMILES is read from it. I, II: the chains in the order shown. Phe(4-tBu) = CC(C)(C)c1ccc(C[C@H](N)C(=O)O)cc1; Diglycolyl = O=C(COCC(=O)[*:2])[*:1]; NMeR = CN[C@@H](CCCNC(=N)N)C(=O)O; β3hE = N[C@@H](CCC(=O)O)CC(=O)O; NMeK = CN[C@@H](CCCCN)C(=O)O; Pen = CC(C)(S)[C@H](N)C(=O)O; dNMeK = CN[C@H](CCCCN)C(=O)O

Legend:
[1] = Plasma Stability Assay; format: in vitro ADME; details: rat, Table 4-C, t1/2
Protocol: 0.5 mL of rat plasma (one tube per peptide, volume depends on how many time points are to be collected, 50 μL per time point) was added to each well of a 96-well polypropylene plate, and the tubes were incubated in a heated water bath, preset to 37° C. with gentle shaking. 1 μL of 10 mM peptide stock solution was added to each tub, and then 200 μL of Acetonitrile w/0.1% Formic Acid was added to each tube (1:4). Samples were collected at the following time points: 0, 10, 30, 45, 60, 120, 180 mins. When all time points were collected, the plate was centrifuged at 5000 rpm for 5 mins. LCM analysis was performed by pipetting 100 μL of each sample to appropriate well of a 96-well deep plate. 100 μL of an internal standard peptide (1 ug/mL) was added in Mobile Phase A to each well. The plate was vortexed and injected

[2] = Dithiothreitol (DTT) Redox Stability Assay; format: physicochemical; details: Table 4-C, t1/2, 0.5 mM DTT
Protocol: For each peptide tested, the DTT stability assay was conducted by adding 5 μl of a 10 mM peptide stock solution in DMSO to 1 ml of 100 mM Tris-Cl, pH 7.5 (final peptide concentration is 50 μM). At time 0 min, 5 ul of a freshly thawed 100 mM DTT solution was added to the incubation tube containing the peptide, such that the final DTT concentration was 0.5 mM. The reactions were incubated at room temperature. At different time points up to 120 minutes (20 min, 40 min, 80 min, 120 min), 50 ul aliquots were removed, and the reaction was quenched by adding 10 μl of 5M acetic acid. To measure disappearance of the parent peptide, the quenched samples (30 μl) were analyzed by reverse phase HPLC and UV absorbance at 220 nm. The fraction oxidized remaining was graphed versus time, and half-lives were calculated by fitting to a first-order exponential decay equation using Excel.

[3] = biological target: α4β1 (Homo sapiens, UniProt P05556+P13612); assay: α4β1-VCAM Cell Adhesion Assay (Jurkat E6.1 human cells); format: cell-based; parameters: host or cells: Jurkat E6.1 human T cells; details: Table 4-B; read-out: Cell Adhesion α4β1 IC50
Chain of α4β1 (P13612 34-1032): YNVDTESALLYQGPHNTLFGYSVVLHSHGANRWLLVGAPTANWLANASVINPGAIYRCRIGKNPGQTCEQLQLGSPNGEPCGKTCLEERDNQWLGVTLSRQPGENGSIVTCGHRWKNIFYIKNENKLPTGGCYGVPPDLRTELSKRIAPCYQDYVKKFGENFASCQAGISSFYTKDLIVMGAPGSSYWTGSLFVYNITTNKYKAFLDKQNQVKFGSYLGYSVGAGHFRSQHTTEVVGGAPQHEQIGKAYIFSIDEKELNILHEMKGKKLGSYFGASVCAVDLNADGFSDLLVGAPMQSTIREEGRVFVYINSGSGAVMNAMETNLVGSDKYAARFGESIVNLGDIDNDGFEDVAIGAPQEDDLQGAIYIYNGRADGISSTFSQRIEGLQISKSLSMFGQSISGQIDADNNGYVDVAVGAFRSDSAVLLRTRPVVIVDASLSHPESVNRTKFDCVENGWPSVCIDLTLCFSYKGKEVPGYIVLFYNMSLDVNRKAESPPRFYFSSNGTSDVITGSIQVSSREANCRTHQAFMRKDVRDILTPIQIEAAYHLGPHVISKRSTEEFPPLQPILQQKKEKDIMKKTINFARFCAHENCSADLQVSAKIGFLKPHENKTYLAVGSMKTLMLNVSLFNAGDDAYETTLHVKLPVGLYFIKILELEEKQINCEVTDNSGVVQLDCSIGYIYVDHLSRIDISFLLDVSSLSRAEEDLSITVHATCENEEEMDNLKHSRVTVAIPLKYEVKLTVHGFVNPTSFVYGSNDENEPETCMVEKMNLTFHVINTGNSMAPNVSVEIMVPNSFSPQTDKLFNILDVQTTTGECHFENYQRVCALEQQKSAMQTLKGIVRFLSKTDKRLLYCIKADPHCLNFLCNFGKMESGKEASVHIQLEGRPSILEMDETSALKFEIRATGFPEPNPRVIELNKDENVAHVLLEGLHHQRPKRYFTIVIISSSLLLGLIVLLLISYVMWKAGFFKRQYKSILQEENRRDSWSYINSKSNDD
Chain of α4β1 (P05556 21-798): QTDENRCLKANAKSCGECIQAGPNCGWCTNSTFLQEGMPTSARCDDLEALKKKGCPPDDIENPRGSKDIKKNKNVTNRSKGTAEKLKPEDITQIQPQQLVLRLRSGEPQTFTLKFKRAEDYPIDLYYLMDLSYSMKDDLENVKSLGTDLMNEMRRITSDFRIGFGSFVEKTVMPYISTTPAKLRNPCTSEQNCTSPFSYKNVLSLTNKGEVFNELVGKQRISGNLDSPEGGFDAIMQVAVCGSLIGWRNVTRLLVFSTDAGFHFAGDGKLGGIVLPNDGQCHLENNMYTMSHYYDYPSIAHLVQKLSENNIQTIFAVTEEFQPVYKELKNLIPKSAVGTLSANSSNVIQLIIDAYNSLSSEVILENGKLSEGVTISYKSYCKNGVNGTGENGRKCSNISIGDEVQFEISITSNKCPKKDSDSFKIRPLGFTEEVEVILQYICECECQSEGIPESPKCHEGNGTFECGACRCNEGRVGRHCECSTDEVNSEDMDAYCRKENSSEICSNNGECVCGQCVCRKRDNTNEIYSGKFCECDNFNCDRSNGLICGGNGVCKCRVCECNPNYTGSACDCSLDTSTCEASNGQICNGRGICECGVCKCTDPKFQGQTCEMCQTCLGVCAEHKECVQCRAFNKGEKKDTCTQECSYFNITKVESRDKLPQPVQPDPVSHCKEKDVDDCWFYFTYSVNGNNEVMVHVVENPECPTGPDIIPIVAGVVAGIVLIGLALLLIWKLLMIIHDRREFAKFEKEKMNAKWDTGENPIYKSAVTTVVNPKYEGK
In short: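 Jurkat E6.1 cells in DMEM with 0.1% BSA, 10 mM HEPES pH 7 and 1 mM MnCl2 were added (200,000/well) with serially diluted peptides to rh VCAM-1-Fc-coated wells (400 ng/well) for 30-45 min at 37 °C. Adherent cells after washing were quantified by MTT, absorbance 570 nm, with no-cell background subtracted for dose response.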

[4] = biological target: T1, α4β7 (Mus musculus, UniProt P26011+Q00651); assay: α4β7 Cell Adhesion Assay (Mouse), TK1 cells; format: cell-based; details: Table 4-B; read-out: Cell Adhesion α4β7 Mouse IC50
T1 construct: host or cells: TK1 mouse T cells
T1 sequence (Q00651 34-1039 limits assumed): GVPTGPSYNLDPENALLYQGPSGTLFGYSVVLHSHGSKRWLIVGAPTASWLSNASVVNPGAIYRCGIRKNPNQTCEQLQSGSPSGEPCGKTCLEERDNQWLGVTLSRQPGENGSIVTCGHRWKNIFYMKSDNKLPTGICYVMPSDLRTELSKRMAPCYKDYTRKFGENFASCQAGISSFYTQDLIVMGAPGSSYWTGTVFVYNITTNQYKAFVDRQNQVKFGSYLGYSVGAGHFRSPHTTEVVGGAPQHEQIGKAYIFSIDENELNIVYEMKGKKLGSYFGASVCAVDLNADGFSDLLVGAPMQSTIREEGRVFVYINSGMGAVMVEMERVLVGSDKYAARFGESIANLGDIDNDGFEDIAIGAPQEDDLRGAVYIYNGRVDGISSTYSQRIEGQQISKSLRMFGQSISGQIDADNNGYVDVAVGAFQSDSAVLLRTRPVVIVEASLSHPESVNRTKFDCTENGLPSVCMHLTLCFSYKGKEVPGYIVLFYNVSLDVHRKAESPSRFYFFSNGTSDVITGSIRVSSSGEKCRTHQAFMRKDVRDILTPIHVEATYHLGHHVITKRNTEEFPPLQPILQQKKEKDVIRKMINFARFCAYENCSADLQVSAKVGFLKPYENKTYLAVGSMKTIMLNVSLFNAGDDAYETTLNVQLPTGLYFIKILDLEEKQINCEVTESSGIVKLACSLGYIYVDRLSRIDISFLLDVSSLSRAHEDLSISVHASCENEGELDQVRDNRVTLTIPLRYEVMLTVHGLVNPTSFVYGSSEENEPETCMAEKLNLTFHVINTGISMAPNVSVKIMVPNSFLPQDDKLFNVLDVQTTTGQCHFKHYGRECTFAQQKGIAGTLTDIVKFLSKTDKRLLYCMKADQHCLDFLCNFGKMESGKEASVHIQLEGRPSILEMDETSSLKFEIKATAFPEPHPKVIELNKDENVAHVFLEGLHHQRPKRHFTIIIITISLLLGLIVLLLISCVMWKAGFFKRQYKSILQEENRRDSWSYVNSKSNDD
T1 sequence (P26011 20-806): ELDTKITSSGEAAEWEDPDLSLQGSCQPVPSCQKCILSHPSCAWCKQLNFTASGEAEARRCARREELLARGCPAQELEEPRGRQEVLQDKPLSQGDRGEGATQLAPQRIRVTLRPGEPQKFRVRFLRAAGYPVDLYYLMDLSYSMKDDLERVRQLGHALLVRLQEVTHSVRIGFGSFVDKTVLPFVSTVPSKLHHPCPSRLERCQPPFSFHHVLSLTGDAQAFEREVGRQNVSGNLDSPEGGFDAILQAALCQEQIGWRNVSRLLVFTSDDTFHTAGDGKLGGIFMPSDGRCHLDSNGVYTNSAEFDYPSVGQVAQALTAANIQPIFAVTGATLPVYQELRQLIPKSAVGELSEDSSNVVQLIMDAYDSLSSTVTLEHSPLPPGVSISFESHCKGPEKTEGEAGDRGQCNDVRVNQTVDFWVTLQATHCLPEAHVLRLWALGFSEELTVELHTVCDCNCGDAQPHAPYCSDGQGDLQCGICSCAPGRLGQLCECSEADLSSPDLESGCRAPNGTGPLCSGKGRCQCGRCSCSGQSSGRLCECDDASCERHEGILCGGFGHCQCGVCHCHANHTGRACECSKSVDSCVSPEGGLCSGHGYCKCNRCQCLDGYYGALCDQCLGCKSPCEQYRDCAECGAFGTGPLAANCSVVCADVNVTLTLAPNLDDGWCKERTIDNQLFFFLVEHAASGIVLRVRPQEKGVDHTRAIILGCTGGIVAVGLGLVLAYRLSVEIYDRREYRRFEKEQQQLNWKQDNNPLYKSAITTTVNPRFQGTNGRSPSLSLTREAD
In short: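 Mouse TK1 cells in DMEM with 0.1% BSA, 10 mM HEPES pH 7 and 1 mM MnCl2 were allowed to adhere for 30-45 min at 37 °C to plates coated with recombinant human MAdCAM-1 Fc (200 ng/well) in the presence of serially diluted peptides. Adherent cells were quantified by MTT absorbance at 570 nm, with no-cell background subtracted for dose response.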

SMILES | half-life at 20 μM [1] | DTT Min [2] | IC50 [3] | IC50 [4]
CC(=O)N[C@H]1CSSC(C)(C)[C@@H](C(=O)N[C@H](CCCCN)C(N)=O)NC(=O)[C@H](CC(C)C)NC(=O)[C@H]([C@@H](C)O)NC(=O)[C@H](CC(=O)O)NC(=O)[C@H](CO)NC(=O)[C@H](CCCNC(=N)N)N(C)C1=O [compound 202, Ac-C-N-Me-R-S-D-T-L-Pen-k-NH2] (Ac-C[NMeR]SDTL[Pen][dK]-NH2; disulfide 1-7) | > 6 h | 42 min | > 100000 nM | 
CC(=O)N[C@@H]1C(=O)N(C)[C@@H](CCCNC(=N)N)C(=O)N[C@@H](CO)C(=O)N[C@@H](CC(=O)O)C(=O)N[C@@H]([C@@H](C)O)C(=O)N[C@@H](CC(C)C)C(=O)N[C@H](C(=O)N[C@@H](Cc2ccc(C(C)(C)C)cc2)C(=O)N[C@@H](CCC(=O)O)CC(=O)N[C@H](CCCCNC(=O)COCC(=O)NCCCC[C@@H](NC(=O)C[C@H](CCC(=O)O)NC(=O)[C@H](Cc2ccc(C(C)(C)C)cc2)NC(=O)[C@H]2NC(=O)[C@H](CC(C)C)NC(=O)[C@H]([C@@H](C)O)NC(=O)[C@H](CC(=O)O)NC(=O)[C@H](CO)NC(=O)[C@H](CCCNC(=N)N)N(C)C(=O)[C@@H](NC(C)=O)C(C)(C)SSC2(C)C)C(N)=O)C(N)=O)C(C)(C)SSC1(C)C [compound 218, [Ac-Pen-(N-Me-Arg)-Ser-Asp-Thr-Leu-Pen-Phe(4-tBu)-(β-homoGlu)-(D-Lys)-NH2]2-DIG] (I: Ac-[Pen][NMeR]SDTL[Pen][Phe(4-tBu)][β3hE][dK]-NH2 / II: Ac-[Pen][NMeR]SDTL[Pen][Phe(4-tBu)][β3hE][dK]-NH2; disulfide I:1-I:7, II:1-II:7; linker I:10-II:10 via Diglycolyl) | > 6 h | >120 min | > 100000 nM | 0.5 nM
CC(=O)N[C@H]1CSSC(C)(C)[C@@H](C(=O)N[C@@H](Cc2c[nH]c3ccccc23)C(=O)N[C@H](CCCCNC(=O)COCC(=O)NCCCC[C@@H](NC(=O)[C@H](Cc2c[nH]c3ccccc23)NC(=O)[C@H]2NC(=O)[C@H](CC(C)C)NC(=O)[C@H]([C@@H](C)O)NC(=O)[C@H](CC(=O)O)NC(=O)[C@H](CO)NC(=O)[C@H](CCCNC(=N)N)N(C)C(=O)[C@@H](NC(C)=O)CSSC2(C)C)C(N)=O)C(N)=O)NC(=O)[C@H](CC(C)C)NC(=O)[C@H]([C@@H](C)O)NC(=O)[C@H](CC(=O)O)NC(=O)[C@H](CO)NC(=O)[C@H](CCCNC(=N)N)N(C)C1=O [compound 204, (Ac-C-N-Me-R-S-D-T-L-Pen-W-k-NH2)2-DIG] (I: Ac-C[NMeR]SDTL[Pen]W[dK]-NH2 / II: Ac-C[NMeR]SDTL[Pen]W[dK]-NH2; disulfide I:1-I:7, II:1-II:7 (inferred); linker I:9-II:9 via Diglycolyl (inferred)) | > 6 h | 27 min | > 100000 nM | 
CC(=O)N[C@@H]1C(=O)N(C)[C@@H](CCCNC(=N)N)C(=O)N[C@@H](CO)C(=O)N[C@@H](CC(=O)O)C(=O)N[C@@H]([C@@H](C)O)C(=O)N[C@@H](CC(C)C)C(=O)N[C@H](C(=O)N[C@@H](Cc2c[nH]c3ccccc23)C(=O)N[C@@H](CCC(=O)O)C(=O)N(C)[C@@H](CCCCNC(=O)COCC(=O)NCCCC[C@@H](C(N)=O)N(C)C(=O)[C@H](CCC(=O)O)NC(=O)[C@H](Cc2c[nH]c3ccccc23)NC(=O)[C@H]2NC(=O)[C@H](CC(C)C)NC(=O)[C@H]([C@@H](C)O)NC(=O)[C@H](CC(=O)O)NC(=O)[C@H](CO)NC(=O)[C@H](CCCNC(=N)N)N(C)C(=O)[C@@H](NC(C)=O)C(C)(C)SSC2(C)C)C(N)=O)C(C)(C)SSC1(C)C [compound 215, [Ac-Pen-(N-Me-Arg)-Ser-Asp-Thr-Leu-Pen-Trp-Glu-(N-Me-Lys)-NH2]2-DIG] (I: Ac-[Pen][NMeR]SDTL[Pen]WE[NMeK]-NH2 / II: Ac-[Pen][NMeR]SDTL[Pen]WE[NMeK]-NH2; disulfide I:1-I:7, II:1-II:7 (inferred); linker I:10-II:10 via Diglycolyl (inferred)) | > 6 h | >120 min |  | 0.9 nM
CC(=O)N[C@H]1CSSC(C)(C)[C@@H](C(=O)N[C@@H](CCC(=O)O)C(=O)N[C@H](CCCCNC(=O)COCC(=O)NCCCC[C@@H](NC(=O)[C@H](CCC(=O)O)NC(=O)[C@H]2NC(=O)[C@H](CC(C)C)NC(=O)[C@H]([C@@H](C)O)NC(=O)[C@H](CC(=O)O)NC(=O)[C@H](CO)NC(=O)[C@H](CCCNC(=N)N)N(C)C(=O)[C@@H](NC(C)=O)CSSC2(C)C)C(N)=O)C(N)=O)NC(=O)[C@H](CC(C)C)NC(=O)[C@H]([C@@H](C)O)NC(=O)[C@H](CC(=O)O)NC(=O)[C@H](CO)NC(=O)[C@H](CCCNC(=N)N)N(C)C1=O [compound 205, (Ac-C-N-Me-R-S-D-T-L-Pen-E-k-NH2)2-DIG] (I: Ac-C[NMeR]SDTL[Pen]E[dK]-NH2 / II: Ac-C[NMeR]SDTL[Pen]E[dK]-NH2; disulfide I:1-I:7, II:1-II:7 (inferred); linker I:9-II:9 via Diglycolyl (inferred)) | > 6 h | 42 min |  | 
CC(=O)N[C@@H]1C(=O)N(C)[C@@H](CCCNC(=N)N)C(=O)N[C@@H](CO)C(=O)N[C@@H](CC(=O)O)C(=O)N[C@@H]([C@@H](C)O)C(=O)N[C@@H](CC(C)C)C(=O)N[C@H](C(=O)N[C@@H](Cc2c[nH]c3ccccc23)C(=O)N[C@H](CCC(=O)O)C(=O)N[C@H](CCCCNC(=O)COCC(=O)NCCCC[C@@H](NC(=O)[C@@H](CCC(=O)O)NC(=O)[C@H](Cc2c[nH]c3ccccc23)NC(=O)[C@H]2NC(=O)[C@H](CC(C)C)NC(=O)[C@H]([C@@H](C)O)NC(=O)[C@H](CC(=O)O)NC(=O)[C@H](CO)NC(=O)[C@H](CCCNC(=N)N)N(C)C(=O)[C@@H](NC(C)=O)C(C)(C)SSC2(C)C)C(=O)O)C(=O)O)C(C)(C)SSC1(C)C [compound 216, (Ac-Pen-N-Me-R-S-D-T-L-Pen-W-e-k-OH)2-DIG] (I: Ac-[Pen][NMeR]SDTL[Pen]W[dE][dK]-OH / II: Ac-[Pen][NMeR]SDTL[Pen]W[dE][dK]-OH; disulfide I:1-I:7, II:1-II:7 (inferred); linker I:10-II:10 via Diglycolyl (inferred)) | > 3 h |  | > 100000 nM | 1 nM
CC(=O)N[C@@H]1C(=O)N(C)[C@@H](CCCNC(=N)N)C(=O)N[C@@H](CO)C(=O)N[C@@H](CC(=O)O)C(=O)N[C@@H]([C@@H](C)O)C(=O)N[C@@H](CC(C)C)C(=O)N[C@H](C(=O)N[C@@H](Cc2c[nH]c3ccccc23)C(=O)N[C@@H](CCC(=O)O)C(=O)N(C)[C@H](CCCCNC(=O)COCC(=O)NCCCC[C@H](C(N)=O)N(C)C(=O)[C@H](CCC(=O)O)NC(=O)[C@H](Cc2c[nH]c3ccccc23)NC(=O)[C@H]2NC(=O)[C@H](CC(C)C)NC(=O)[C@H]([C@@H](C)O)NC(=O)[C@H](CC(=O)O)NC(=O)[C@H](CO)NC(=O)[C@H](CCCNC(=N)N)N(C)C(=O)[C@@H](NC(C)=O)C(C)(C)SSC2(C)C)C(N)=O)C(C)(C)SSC1(C)C [compound 214, [Ac-Pen-(N-Me-Arg)-Ser-Asp-Thr-Leu-Pen-Trp-Glu-(N-Me-D-Lys)-NH2]2-DIG] (I: Ac-[Pen][NMeR]SDTL[Pen]WE[dNMeK]-NH2 / II: Ac-[Pen][NMeR]SDTL[Pen]WE[dNMeK]-NH2; disulfide I:1-I:7, II:1-II:7 (inferred); linker I:10-II:10 via Diglycolyl (inferred)) | > 6 h | >120 min |  | 1.1 nM
CC(=O)N[C@@H]1C(=O)N(C)[C@@H](CCCNC(=N)N)C(=O)N[C@@H](CO)C(=O)N[C@@H](CC(=O)O)C(=O)N[C@@H]([C@@H](C)O)C(=O)N[C@@H](CC(C)C)C(=O)N[C@H](C(=O)N[C@@H](Cc2c[nH]c3ccccc23)C(=O)N[C@H](CCCCNC(=O)COCC(=O)NCCCC[C@@H](NC(=O)[C@H](Cc2c[nH]c3ccccc23)NC(=O)[C@H]2NC(=O)[C@H](CC(C)C)NC(=O)[C@H]([C@@H](C)O)NC(=O)[C@H](CC(=O)O)NC(=O)[C@H](CO)NC(=O)[C@H](CCCNC(=N)N)N(C)C(=O)[C@@H](NC(C)=O)C(C)(C)SSC2(C)C)C(N)=O)C(N)=O)C(C)(C)SSC1(C)C [compound 209, (Ac-Pen-N-Me-R-S-D-T-L-Pen-W-k-NH2)2-DIG] (I: Ac-[Pen][NMeR]SDTL[Pen]W[dK]-NH2 / II: Ac-[Pen][NMeR]SDTL[Pen]W[dK]-NH2; disulfide I:1-I:7, II:1-II:7 (inferred); linker I:9-II:9 via Diglycolyl (inferred)) | > 3 h | >120 min | > 100000 nM | 51 nM
